Patent publication US20250154109A1, “SODIUM CHANNEL BLOCKING COMPOUNDS, DERIVATIVES THEREOF, AND METHODS OF THEIR USE” (LATIGO BIOTHERAPEUTICS, INC, priority 2022, published 2025)
pIC50: −log10 of the molar value. Counter-ions that a name gives are not always drawn. Like-named read-outs stand apart in the source and are kept apart here.

Molecular target: human Nav1.8 (Homo sapiens, UniProt Q9Y5Y9)
Test: SyncroPatch384PE assay (automated patch clamp)
Assay type: cell-based
Settings: human Nav1.8/b3 CHO cells
[1] = inactivated state block (P2 measurement), read-out: P2 IC50
[2] = resting state block (P1 measurement), read-out: P1 IC50

human Nav1.8, sequence (Q9Y5Y9 whole entry): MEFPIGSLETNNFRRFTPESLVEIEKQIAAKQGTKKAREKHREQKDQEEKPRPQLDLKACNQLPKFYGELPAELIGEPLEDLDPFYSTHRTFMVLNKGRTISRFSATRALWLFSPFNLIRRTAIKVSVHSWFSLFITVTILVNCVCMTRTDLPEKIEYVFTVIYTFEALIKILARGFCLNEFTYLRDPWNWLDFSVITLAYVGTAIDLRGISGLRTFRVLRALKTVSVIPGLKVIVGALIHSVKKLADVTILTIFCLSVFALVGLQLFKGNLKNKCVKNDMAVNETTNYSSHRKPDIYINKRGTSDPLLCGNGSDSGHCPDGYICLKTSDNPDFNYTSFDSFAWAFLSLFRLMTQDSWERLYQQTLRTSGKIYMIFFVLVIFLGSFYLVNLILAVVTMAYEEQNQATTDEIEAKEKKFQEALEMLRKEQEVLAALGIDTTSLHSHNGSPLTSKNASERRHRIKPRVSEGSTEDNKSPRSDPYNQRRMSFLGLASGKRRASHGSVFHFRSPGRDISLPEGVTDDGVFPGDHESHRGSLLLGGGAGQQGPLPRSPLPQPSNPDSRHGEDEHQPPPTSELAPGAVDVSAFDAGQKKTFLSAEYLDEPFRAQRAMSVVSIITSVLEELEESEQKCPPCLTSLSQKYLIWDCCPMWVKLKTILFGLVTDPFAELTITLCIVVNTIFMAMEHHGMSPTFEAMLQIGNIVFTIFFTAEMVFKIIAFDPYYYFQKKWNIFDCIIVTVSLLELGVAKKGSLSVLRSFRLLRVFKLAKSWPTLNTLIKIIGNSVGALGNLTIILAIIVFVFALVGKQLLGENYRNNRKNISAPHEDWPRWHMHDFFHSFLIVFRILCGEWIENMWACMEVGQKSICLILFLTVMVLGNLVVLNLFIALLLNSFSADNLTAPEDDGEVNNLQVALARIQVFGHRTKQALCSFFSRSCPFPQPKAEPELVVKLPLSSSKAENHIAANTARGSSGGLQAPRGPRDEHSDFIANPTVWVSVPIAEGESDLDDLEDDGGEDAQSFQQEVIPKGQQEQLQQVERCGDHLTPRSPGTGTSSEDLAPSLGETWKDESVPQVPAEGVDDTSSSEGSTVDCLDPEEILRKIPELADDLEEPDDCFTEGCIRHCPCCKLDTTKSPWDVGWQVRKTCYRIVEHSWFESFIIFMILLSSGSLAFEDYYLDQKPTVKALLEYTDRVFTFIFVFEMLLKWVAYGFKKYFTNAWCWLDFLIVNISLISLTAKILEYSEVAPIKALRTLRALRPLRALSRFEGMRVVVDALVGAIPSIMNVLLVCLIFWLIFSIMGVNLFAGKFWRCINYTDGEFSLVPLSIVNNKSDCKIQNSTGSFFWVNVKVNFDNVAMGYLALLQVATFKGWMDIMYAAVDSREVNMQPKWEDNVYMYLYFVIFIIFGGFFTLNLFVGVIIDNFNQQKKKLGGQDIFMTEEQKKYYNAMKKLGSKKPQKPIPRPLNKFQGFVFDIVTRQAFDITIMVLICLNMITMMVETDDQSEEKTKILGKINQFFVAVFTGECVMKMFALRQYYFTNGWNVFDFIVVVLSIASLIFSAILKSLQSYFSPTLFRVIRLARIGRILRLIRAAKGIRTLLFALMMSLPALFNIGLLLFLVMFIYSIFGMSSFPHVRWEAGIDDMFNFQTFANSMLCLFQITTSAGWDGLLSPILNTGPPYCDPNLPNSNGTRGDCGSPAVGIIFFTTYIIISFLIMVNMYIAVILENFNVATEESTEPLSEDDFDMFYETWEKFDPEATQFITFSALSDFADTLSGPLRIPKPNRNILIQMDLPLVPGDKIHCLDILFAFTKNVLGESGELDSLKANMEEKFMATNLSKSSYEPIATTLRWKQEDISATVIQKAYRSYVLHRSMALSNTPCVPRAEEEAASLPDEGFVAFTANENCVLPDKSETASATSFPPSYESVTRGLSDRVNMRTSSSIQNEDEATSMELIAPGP

Row | Compound | pIC50 [1] | pIC50 [2]
1 | Cc1c(-c2cnn(C3CC3)c2)cnc(N2CCCC(F)(F)CC2)c1C(=O)Nc1cccc([S@](C)(=N)=O)c1 [Example 69, (R)-5-(1-cyclopropyl-1H-pyrazol-4-yl)-2-(4,4-difluoroazepan-1-yl)-4-methyl-N-(3-(S-methylsulfonimidoyl)phenyl)nicotinamide] | 7.30 to 8.30 | 7.30 to 8.30
2 | CNCC(=O)N=[S@](C)(=O)c1cccc(NC(=O)c2c(N3CCCC(F)(F)CC3)ncc(-c3cnn(C4CC4)c3)c2C)c1 [Example 70, (R)-5-(1-cyclopropyl-1H-pyrazol-4-yl)-2-(4,4-difluoroazepan-1-yl)-4-methyl-N-(3-(S-methyl-N-(methylglycyl)sulfonimidoyl)phenyl)nicotinamide] | ≥ 8.30 | ≥ 8.30
3 | Cc1c(-c2cnn(C)c2)nnc(N2CCCC(F)(F)CC2)c1C(=O)Nc1cccc([S@](C)(=N)=O)c1 [Example 71, (R)-3-(4,4-difluoroazepan-1-yl)-5-methyl-6-(1-methyl-1H-pyrazol-4-yl)-N-(3-(S-methylsulfonimidoyl)phenyl)pyridazine-4-carboxamide] | < 6.70 | < 6.70
4 | CNCC(=O)N=[S@](C)(=O)c1cccc(NC(=O)c2c(N3CCCC(F)(F)CC3)nnc(-c3cnn(C)c3)c2C)c1 [Example 72, (R)-3-(4,4-difluoroazepan-1-yl)-5-methyl-6-(1-methyl-1H-pyrazol-4-yl)-N-(3-(S-methyl-N-(methylglycyl)sulfonimidoyl)phenyl)pyridazine-4-carboxamide] | 7.00 to 7.30 | 7.00 to 7.30
5 | Cc1c(C#N)c(C(F)(F)F)nc(N2CCCC(F)(F)CC2)c1C(=O)Nc1cccc([S@@](C)(=O)=NC(=O)C2(N)CCC2)c1 [Example 73, (R)-N-(3-(N-(1-aminocyclobutane-1-carbonyl)-S-methylsulfonimidoyl)phenyl)-5-cyano-2-(4,4-difluoroazepan-1-yl)-4-methyl-6-(trifluoromethyl)nicotinamide] | 7.30 to 8.30 | 7.00 to 7.30
6 | Cc1c(-c2cnn(C)c2)cnc(N2CCCC(F)(F)CC2)c1C(=O)Nc1cccc([S@@](C)(=O)=NC(=O)CN)c1 [Example 74, (R)-2-(4,4-difluoroazepan-1-yl)-N-(3-(N-glycyl-S-methylsulfonimidoyl)phenyl)-4-methyl-5-(1-methyl-1H-pyrazol-4-yl)nicotinamide] | 7.30 to 8.30 | 7.30 to 8.30
7 | Cc1c(-c2cnn(C)c2)cnc(N2CCCC(F)(F)CC2)c1C(=O)Nc1cccc([S@@](C)(=O)=NC(=O)[C@@H](C)N)c1 [Example 75, N-(3-((R)-N-(D-alanyl)-S-methylsulfonimidoyl)phenyl)-2-(4,4-difluoroazepan-1-yl)-4-methyl-5-(1-methyl-1H-pyrazol-4-yl)nicotinamide] | 7.30 to 8.30 | 7.30 to 8.30
8 | Cc1c(-c2cnn(C)c2)cnc(N2CCCC(F)(F)CC2)c1C(=O)Nc1cccc([S@@](C)(=O)=NC(=O)[C@H](C)N)c1 [Example 76, N-(3-((R)-N-(L-alanyl)-S-methylsulfonimidoyl)phenyl)-2-(4,4-difluoroazepan-1-yl)-4-methyl-5-(1-methyl-1H-pyrazol-4-yl)nicotinamide formate] | ≥ 8.30 | ≥ 8.30
9 | C[S@@](=N)(=O)c1cccc(NC(=O)c2cc(Cl)c(C(F)(F)F)cc2N2CCCC(F)(F)CC2)c1 [Example 77, (R)-5-chloro-2-(4,4-difluoroazepan-1-yl)-N-(3-(S-methylsulfonimidoyl)phenyl)-4-(trifluoromethyl)benzamide] | ≥ 8.30 | ≥ 8.30
10 | Cc1c(-c2cnn(C)c2)ccc(N2CCCC(F)(F)CC2)c1C(=O)Nc1cccc([S@](C)(=N)=O)c1 [Example 78, (R)-6-(4,4-difluoroazepan-1-yl)-2-methyl-3-(1-methyl-1H-pyrazol-4-yl)-N-(3-(S-methylsulfonimidoyl)phenyl)benzamide] | < 6.70 | < 6.70
11 | Cc1ccsc1-c1nnc(N2CCCCCC2)c(C(=O)Nc2cccc(S(C)(=N)=O)c2)c1C (stereo not drawn) [Example 79, 3-(Azepan-1-yl)-5-methyl-N-(3-(S-methylsulfonimidoyl)phenyl)-6-(3-methylthiophen-2-yl)pyridazine-4-carboxamide] | < 6.70 | < 6.70
12 | CS(=N)(=O)c1cccc(NC(=O)c2ccc(CC3CC3)nc2N2CCC3(CC2)CC3)c1 (stereo not drawn) [Example 80, 6-(cyclopropylmethyl)-N-(3-(S-methylsulfonimidoyl)phenyl)-2-(6-azaspiro[2.5]octan-6-yl)nicotinamide] | 7.30 to 8.30 | 7.30 to 8.30
13 | Cc1c(Br)cnc(N2CCCC(F)(F)CC2)c1C(=O)Nc1cccc(S(C)(=N)=O)c1 (stereo not drawn) [Example 86, 5-bromo-2-(4,4-difluoroazepan-1-yl)-4-methyl-N-(3-(S-methylsulfonimidoyl)phenyl)nicotinamide] | ≥ 8.30 | ≥ 8.30
14 | Cc1c(N2CC3(COC3)C2)cnc(N2CCCC(F)(F)CC2)c1C(=O)Nc1cccc([S@@](C)(=N)=O)c1 [Example 90, (S)-2-(4,4-difluoroazepan-1-yl)-4-methyl-N-(3-(S-methylsulfonimidoyl)phenyl)-5-(2-oxa-6-azaspiro[3.3]heptan-6-yl)nicotinamide] | 6.70 to 7.00 | 6.70 to 7.00
15 | Cc1c(C(F)(F)F)nnc(N2CCC3(CC2)CC3)c1C(=O)Nc1cccc(S(C)(=N)=O)c1 (stereo not drawn) [Example 94, 5-methyl-N-(3-(S-methylsulfonimidoyl)phenyl)-3-(6-azaspiro[2.5]octan-6-yl)-6-(trifluoromethyl)pyridazine-4-carboxamide] | < 6.70 | < 6.70
16 | Cc1c(Cl)cnc(N2CCCC(F)(F)CC2)c1C(=O)Nc1cccc(S(C)(=N)=O)c1 (stereo not drawn) [Example 95, 5-chloro-2-(4,4-difluoroazepan-1-yl)-4-methyl-N-(3-(S-methylsulfonimidoyl)phenyl)nicotinamide] | ≥ 8.30 | ≥ 8.30
17 | Cc1c(C#N)cnc(N2CCCC(F)(F)CC2)c1C(=O)Nc1cccc(S(C)(=N)=O)c1 (stereo not drawn) [Example 97, 5-cyano-2-(4,4-difluoroazepan-1-yl)-4-methyl-N-(3-(S-methylsulfonimidoyl)phenyl)nicotinamide] | 7.30 to 8.30 | 7.30 to 8.30

Results, then the molecule that gave them:

Row | pIC50 [1] | pIC50 [2] | Compound
18 | ≥ 8.30 | ≥ 8.30 | Cc1c(-c2ccc(C#N)cc2)cnc(N2CCCC(F)(F)CC2)c1C(=O)Nc1cccc(S(C)(=N)=O)c1 (stereo not drawn) [Example 81]
19 | ≥ 8.30 | ≥ 8.30 | Cc1c(-c2cccc(F)c2)cnc(N2CCCC(F)(F)CC2)c1C(=O)Nc1cccc(S(C)(=N)=O)c1 (stereo not drawn) [Example 82, 2-(4,4-difluoroazepan-1-yl)-5-(3-fluorophenyl)-4-methyl-N-(3-(S-methylsulfonimidoyl)phenyl)nicotinamide]
20 | 7.00 to 7.30 | 7.00 to 7.30 | Cc1c(-c2cnn(C)c2)cnc(N2CCCC(F)(F)CC2)c1C(=O)Nc1cccc(S(C)(=N)=O)c1 (stereo not drawn) [Example 83, 2-(4,4-difluoroazepan-1-yl)-4-methyl-5-(1-methyl-1H-pyrazol-4-yl)-N-(3-(S-methylsulfonimidoyl)phenyl)nicotinamide]
21 | 7.30 to 8.30 | 7.00 to 7.30 | Cc1c(-c2cccnc2)cnc(N2CCCC(F)(F)CC2)c1C(=O)Nc1cccc(S(C)(=N)=O)c1 (stereo not drawn) [Example 84, 6-(4,4-difluoroazepan-1-yl)-4-methyl-N-(3-(S-methylsulfonimidoyl)phenyl)-[3,3bipyridine]-5-carboxamide]
22 | 7.00 to 7.30 | 7.00 to 7.30 | Cc1c(-c2ccncc2)cnc(N2CCCC(F)(F)CC2)c1C(=O)Nc1cccc(S(C)(=N)=O)c1 (stereo not drawn) [Example 85, 6-(4,4-difluoroazepan-1-yl)-4-methyl-N-(3-(S-methylsulfonimidoyl)phenyl)-[3,4bipyridine]-5-carboxamide]
23 | ≥ 8.30 | ≥ 8.30 | Cc1c(-c2ccc(C(F)F)cc2)cnc(N2CCCC(F)(F)CC2)c1C(=O)Nc1cccc(S(C)(=N)=O)c1 (stereo not drawn) [Example 87, 2-(4,4-difluoroazepan-1-yl)-5-(4-(difluoromethyl)phenyl)-4-methyl-N-(3-(S-methylsulfonimidoyl)phenyl)nicotinamide]
24 | ≥ 8.30 | ≥ 8.30 | Cc1c(-c2ccc(F)cc2)cnc(N2CCCC(F)(F)CC2)c1C(=O)Nc1cccc(S(C)(=N)=O)c1 (stereo not drawn) [Example 88, 2-(4,4-difluoroazepan-1-yl)-5-(4-fluorophenyl)-4-methyl-N-(3-(S-methylsulfonimidoyl)phenyl)nicotinamide]
25 | 6.70 to 7.00 | 6.70 to 7.00 | Cc1c(-c2ccn(C)n2)cnc(N2CCCC(F)(F)CC2)c1C(=O)Nc1cccc(S(C)(=N)=O)c1 (stereo not drawn) [Example 89, 2-(4,4-difluoroazepan-1-yl)-4-methyl-5-(1-methyl-1H-pyrazol-3-yl)-N-(3-(S-methylsulfonimidoyl)phenyl)nicotinamide]
26 | 7.30 to 8.30 | 7.30 to 8.30 | Cc1c(-c2cccc(C#N)c2)cnc(N2CCCC(F)(F)CC2)c1C(=O)Nc1cccc(S(C)(=N)=O)c1 (stereo not drawn) [Example 91, 5-(3-cyanophenyl)-2-(4,4-difluoroazepan-1-yl)-4-methyl-N-(3-(S-methylsulfonimidoyl)phenyl)nicotinamide]
27 | ≥ 8.30 | ≥ 8.30 | Cc1c(-c2ccccc2F)cnc(N2CCCC(F)(F)CC2)c1C(=O)Nc1cccc(S(C)(=N)=O)c1 (stereo not drawn) [Example 92, 2-(4,4-difluoroazepan-1-yl)-5-(2-fluorophenyl)-4-methyl-N-(3-(S-methylsulfonimidoyl)phenyl)nicotinamide]
28 | ≥ 8.30 | ≥ 8.30 | COc1ccc(-c2cnc(N3CCCC(F)(F)CC3)c(C(=O)Nc3cccc(S(C)(=N)=O)c3)c2C)cc1 (stereo not drawn) [Example 93, 2-(4,4-difluoroazepan-1-yl)-5-(4-methoxyphenyl)-4-methyl-N-(3-(S-methylsulfonimidoyl)phenyl)nicotinamide]
29 | ≥ 8.30 | ≥ 8.30 | Cc1ccc(-c2cnc(N3CCCC(F)(F)CC3)c(C(=O)Nc3cccc(S(C)(=N)=O)c3)c2C)cc1 (stereo not drawn) [Example 96, 2-(4,4-difluoroazepan-1-yl)-4-methyl-N-(3-(S-methylsulfonimidoyl)phenyl)-5-(p-tolyl)nicotinamide]
30 | 7.30 to 8.30 | 7.30 to 8.30 | Cc1c(-c2nccs2)cnc(N2CCCC(F)(F)CC2)c1C(=O)Nc1cccc(S(C)(=N)=O)c1 (stereo not drawn) [Example 98, 2-(4,4-difluoroazepan-1-yl)-4-methyl-N-(3-(S-methylsulfonimidoyl)phenyl)-5-(thiazol-2-yl)nicotinamide]
